The text below walks through data of US11691992B2 (Anacor Pharmaceuticals, Inc., priority 2017, dated 2023).

Where two headings read alike, the source gives them in different places. A value given as a limit tells only on which side of the number the result lay.

What all share (assay type): cell-based
For experiment [1], the system named is promastigote forms of L. major. Put plainly: Leishmania major promastigote growth inhibition assay (Alamar Blue). The settings on record: promastigotes, 44 hours + 4 hours Alamar Blue, read-out: IC50: I Org. promastigote Growth L. major, 2 d. An excerpt: Example 108. Leishmania major Promastigote Growth Inhibition Assay
The promastigote assay is a microtiter plate drug sensitivity prescreen assay used to determine antileishmanial activity of candidate drugs against promastigote forms of L. major. (Shadow et al., PLOS Neglected Tropical Diseases, 2009, e311.) Alamar Blue, or resazurin, is a non-fluorescent indicator dye that is converted to bright red-fluorescent resorufin via the activity of mitochondrial reductases. As the activity of mitochondrial reductases is reduced in cells that are dead or dying, and the intensity of the fluorescence is relative to cell number, a test compound that kills or inhibits growth of a particular target cell, such as L. major, will result in a lower production of fluorescent signal. Pre-dosed microtiter drug plates for use in the promastigote drug prescreen assay were produced using sterile 384-well black optical bottom tissue culture plates (Nunc Cat #12-565-344). Candidate drugs were diluted in dimethyl sulfoxide in four 96-well plates to either 10,000 ng/ml or 1,000 ng/ml, and 4.25 μL of diluted drug was subsequently dispensed into each well of a 384-well plate. Duplicate 384 well plates were made at each test concentration (10,000 ng/mL and 1,000 ng/mL) and amphotericin B was used as a batch control. The Tecan EVO Freedom liquid handling system (Tecan US, Inc., Durham, N.C.) was used to produce all drug assay plates and conduct all pipetting operations for this assay. L. major parasites were cultured in Schneider's medium (Lonza Cat #04-351Q) supplemented with 20% heat inactivated FBS (Invitrogen Cat #16140-089). Promastigotes in early log growth phase were harvested from culture, counted, suspended at 1.32×10^5 cells/mF and 5,000 promastigotes were dispensed into each well of the 384 well plate in a volume of 38.8 μL. The 384 well plates were subsequently incubated at 28° C. for 44 hours. 8.4 μF of Alamar Blue (Promega, Cat #G8081) was added to each well, the plates were subsequently incubated at 28° C. and 5% CO2 for 4 hours and then examined for the relative fluorescence units (RFU) per well using the Tecan Genios Plus (Tecan US, Inc., Durham, N.C.) with excitation set at 560 nm and emission set at 590 nm. The relative fluorescence from each well was used to determine the percent growth inhibition of each candidate compound tested. Compounds with 50% or greater inhibition of growth were selected for further analysis to determine IC50 values.
On the technique in general: The colour change of resazurin is a common sign of viable cells or microbes.

Experiment [2] deals with IL3000 T. congolense (drug sensitive) strain. Put plainly: In vitro Alamar Blue 72 h drug sensitivity assay for T. congolense. As to the method:
Example 106. In Vitro Alamar Blue 72 h Drug Sensitivity Assay for T. congolense
Compounds were tested in vitro for chemotherapeutic potency against the IL3000 T. congolense (drug sensitive) strain, using the Alamar Blue assay with several modifications. Test compounds were prepared as 10 mg/mL DMSO stocks for each assay run. Compounds were assayed in at least three separate, independent test runs and an 11-point dilution curve was used to determine the IC50 values. Bloodstream form trypanosomes were supported in HMI media containing 20% bovine serum and were incubated with test compounds for 69 h at 34° C. in a humidified atmosphere containing 5% CO2. Thereafter, 10 μL of Resazurin dye (12.5 mg in 100 mL of phosphate buffered saline, Sigma-Aldrich, Buchs, Switzerland) were added for an additional 3 h. Plates were then read using a fluorescent plate reader (Spectramax, Gemini XS, Bucher Biotec, Basel, Switzerland) using an excitation wavelength of 536 nm and an emission wavelength of 588 nm. Data points were averaged to generate sigmoidal dose-response curves and IC50 values were determined using Softmax Pro 5.2 software.

The subject of experiment [3] is bloodstream forms of T. b. rhodesiense STIB 900. Put plainly: T. brucei rhodesiense STIB 900 growth inhibition assay. The settings on record: Trypanosoma brucei, 72 h. From the text:
Example 110. T. brucei rhodesiense STIB 900 Growth Inhibition Assay
The parasite strain used in this assay was isolated in 1982 from a human patient in Tanzania and after several mouse passages cloned and adapted to axenic culture conditions, ((a) Baltz, T., D. Baltz, C. Giroud, and J. Crockett. EMBO Journal, 1985, 4:1273-1277. (b) Thuita, J. K., S. M. Karanja, T. Wenzler, R. E. Mdachi, J. M. Ngotho, J. M. Kagira, R. Tidwell, and R. Brun. Acta Tropica 2008, 108:6-10.) Minimum Essential Medium (50 μl) supplemented with 25 mM HEPES, 1 g/l additional glucose, 1% MEM non-essential amino acids (100×), 0.2 mM 2-mercaptoethanol, 1 mM Na-pyruvate and 15% heat inactivated horse serum was added to each well of a 96-well microtiter plate. Serial drug dilutions of seven 3-fold dilution steps covering a range from 90 to 0.123 μg/ml were prepared. Then 10^4 bloodstream forms of T. b. rhodesiense STIB 900 in 50 μl was added to each well and the plate incubated at 37° C. under a 5% CO2 atmosphere for 72 h. 10 μl Alamar Blue (resazurin, 12.5 mg in 100 ml double-distilled water) was then added to each well and incubation continued for a further 2-4 h, (Raz, B., M. Iten, Y. Grether-Buhler, R. Kaminsky, and R. Brun. Acta Trap 1997, 68:139-47.) Then the plates were read with a Spectramax Gemini XS microplate fluorometer (Molecular Devices Cooperation, Sunnyvale, Calif., USA) using an excitation wave length of 536 nm and an emission wave length of 588 nm. Data were analyzed using the microplate reader software Softmax Pro (Molecular Devices Cooperation, Sunnyvale, Calif., USA).

The subject of experiment [4] is L. infantum MHOM/MA(BE)/67 amastigotes in primary peritoneal mouse macrophages. Put plainly: Leishmania infantum intracellular amastigote assay in mouse macrophages. The settings on record: Macrophage, 120 h. As to the method:
Example 111. Leishmania infantum Intracellular Amastigote Assay in Mouse Macrophages
L. infantum MHOM/MA(BE)/67 amastigotes were collected from the spleen of an infected donor hamster and used to infect primary peritoneal mouse macrophages. (Kaiser, M., Maes, L., Tadoori, L. P., Spangenberg, T., Ioset, J.-R. J. Biomol. Screen. 2015 20(5), 634-35.) To determine in vitro antileishmanial activity, 3×10^4 macrophages were seeded in each well of a 96-well plate. Culture medium was RPMI-1640 supplemented with L-glutamine (20 mM), 16.5 mM sodium hydrogen carbonate, and 10% fetal calf serum (FCS). After 2 d of outgrowth, 5×10^5 amastigotes/well were added and incubated for 2 h at 37° C. Prediluted samples to be tested were subsequently added, and the plates were further incubated for 5 d at 37° C. and 5% CO2. Total parasite burdens in the well were microscopically assessed after Giemsa staining and expressed as a percentage of the total burden in the blank controls without compound. In treated wells with high amastigote burdens, an overall estimate of the total burden per well was made without discrimination between the number of infected macrophages and the number of amastigotes per infected cell. In treated wells with low burdens, exact counting was performed. The 50% inhibitory concentrations (IC50s) were then generated for each dose response test using GraphPad Prism (GraphPad Software Inc., San Diego, Calif.) using the nonlinear regression (sigmoidal dose-response/variable slope) equation.

[5] abbreviates: Trypanosoma congolense; read-out: inhibition of T. congolense IL-3000 growth at a concentration of 1.0 μM (classes D, E).
[6] abbreviates: bloodstream forms, Alamar Blue, protocol of Example 110, read-out: IC50: I Org. Growth T. brucei rhodesiense STIB 900, 3 d.
Where [7] appears, read: amastigotes in primary peritoneal mouse macrophages, 5 d, Giemsa staining, read-out: Inhibition of Organism Growth in Leishmania infantum MHOM/MA/BE/67, 5 d.

`CCn1nnc(C(=O)Nc2ccc3c(c2)B(O)OC3)c1C` [Example 46, 1-ethyl-N-(1-hydroxy-1,3-dihydrobenzo[c][1,2]oxaborol-6-yl)-5-methyl-1H-1,2,3-triazole-4-carboxamide]: in experiment [1], the IC50 lay within 2510 to 20000 nM.
The same measure, in the same setting: the figure for `O=C(Nc1ccc2c(c1)B(O)OC2)c1nnn(CC2CCC2)c1C(F)(F)F` [Example 47, 1-(cyclobutylmethyl)-N-(1-hydroxy-1,3-dihydrobenzo[c][1,2]oxaborol-6-yl)-5-(trifluoromethyl)-1H-1,2,3-triazole-4-carboxamide] is under 600 nM.
On to `COc1cccc(-c2nc(C(=O)Nc3ccc4c(c3)B(O)OC4)nn2C)n1` [Example 75, N-(1-hydroxy-1,3-dihydrobenzo[c][1,2]oxaborol-6-yl)-5-(6-methoxypyridin-2-yl)-1-methyl-1H-1,2,4-triazole-3-carboxamide], for which the inhibition at 1 µM in experiment [2] (setting [5]) is over 75%. Moreover, the results for the IC50 in experiment [3] (setting [6]) and in experiment [4] (setting [7]) were under 0.1 µM and under 3 µM, respectively.
On the same counts, the results for `Cn1nc(C(=O)Nc2ccc3c(c2)B(O)OC3)nc1-c1ncccc1Cl` [Example 76, 5-(3-Chloropyridin-2-yl)-N-(1-hydroxy-1,3-dihydrobenzo[c][1,2]oxaborol-6-yl)-1-methyl-1H-1,2,4-triazole-3-carboxamide] are over 75%, 0.1 to 0.3 µM and 3 to 19.9 µM.
As for `Cn1nc(C(=O)Nc2ccc3c(c2)B(O)OC3)nc1-c1ccc(Cl)cn1` [Example 77, 5-(5-Chloropyridin-2-yl)-N-(1-hydroxy-1,3-dihydrobenzo[c][1,2]oxaborol-6-yl)-1-methyl-1H-1,2,4-triazole-3-carboxamide], the inhibition at 1 µM in experiment [2] (setting [5]) is over 75%. Also, the values for the IC50 in experiment [3] (setting [6]) and in experiment [4] (setting [7]) were 0.1 to 0.3 µM and 3 to 19.9 µM, respectively.
On to `Cn1nc(-c2cccnc2)nc1C(=O)Nc1ccc2c(c1)B(O)OC2` [Example 78b, N-(1-hydroxy-1,3-dihydrobenzo[c][1,2]oxaborol-6-yl)-1-methyl-3-(pyridin-3-yl)-1H-1,2,4-triazole-5-carboxamide], for which the inhibition at 1 µM in experiment [2] (Trypanosoma congolense, read-out: inhibition of T. congolense IL-3000 growth at a concentration of 1.0 μM (classes D, E)) was over 75%. Moreover, the IC50 in experiment [3] (read-out: IC50: I Org. Growth T. brucei rhodesiense STIB 900, 3 d [uM]) was 0.31 to 10 µM; in experiment [4] (read-out: Inhibition of Organism Growth in Leishmania infantum MHOM/MA/BE/67, 5 d [uM]), 20 to 100 µM.
Consider `Cn1nc(C(=O)Nc2ccc3c(c2)B(O)OC3(C)C)nc1-c1ccccn1` [Example 79], for which, in experiment [2] (setting [5]), the inhibition at 1 µM was over 75%. Moreover, the IC50 in experiment [3] (RHODESIENSE|STIB900, bloodstream forms, Alamar Blue, protocol of Example 110, read-out: IC50: I Org. Growth T. brucei rhodesiense STIB 900, 3 d) was 0.31 to 10 µM; in experiment [4] (setting [7]) it was 20 to 100 µM.
